{"source": "ChEMBL document CHEMBL5154678", "about": "“Lysine Stapling Screening Provides Stable and Low Toxic Cationic Antimicrobial Peptides Combating Multidrug-Resistant Bacteria In Vitro and In Vivo” (J Med Chem, 2022)", "key": {"Pseudomonas aeruginosa": {"test_system": "Pseudomonas aeruginosa", "assay": "Antibacterial activity against Pseudomonas aeruginosa BNCC 125486 assessed as inhibition of bacterial growth incubated for 16 hrs by broth microdilution method", "format": "functional"}, "Staphylococcus aureus [1]": {"test_system": "Staphylococcus aureus", "assay": "Antibacterial activity against methicillin-resistant Staphylococcus aureus assessed as inhibition of bacterial growth incubated for 16 hrs by broth microdilution method", "format": "functional"}, "Erythrocyte": {"test_system": "Erythrocyte", "assay": "Hemolytic activity against human RBC assessed as concentration required to cause 10% hemolysis", "format": "toxicity, cell-based"}, "Escherichia coli [2]": {"test_system": "Escherichia coli", "assay": "Antibacterial activity against Escherichia coli BNCC 133264 assessed as inhibition of bacterial growth incubated for 16 hrs by broth microdilution method", "format": "functional"}, "Listeria monocytogenes": {"test_system": "Listeria monocytogenes", "assay": "Antibacterial activity against Listeria monocytogenes assessed as inhibition of bacterial growth incubated for 16 hrs by broth microdilution method", "format": "functional"}, "Staphylococcus aureus [3]": {"test_system": "Staphylococcus aureus", "assay": "Antibacterial activity against Staphylococcus aureus BNCC 186335 assessed as inhibition of bacterial growth incubated for 16 hrs by broth microdilution method", "format": "functional"}, "Escherichia coli [4]": {"test_system": "Escherichia coli", "assay": "Antibacterial activity against cephalosporin-resistant Escherichia coli BNCC 133264 assessed as inhibition of bacterial growth incubated for 16 hrs by broth microdilution method", "format": "functional"}, "HEK-293T": {"test_system": "HEK-293T", "assay": "Cytotoxicity against human HEK293T cells assessed as cell survival rate at 8 to 128 Ug/ml incubated for 24 hrs by MTT assay relative to control", "format": "toxicity, cell-based", "conditions": "dose 8-128 µg/ml"}}, "note": "Starred links: 1 amine or outer side, 2 acyl side, 3 side chain; linkers in the order of their positions; H or OH if unused. Positions of bridges follow the written chain, without caps; N, C: chain ends. Non-standard residues stand in square brackets, D forms with d. Residues, ends and D or L forms follow the SMILES beside them. X1 = O=C([C@H](CCCCNCC=[*:3])N[*:1])[*:2]"}
{"compound": "CC[C@H](C)[C@H](NC(=O)[C@H](CCCCN)NC(=O)[C@H](CCCNC(=N)N)NC(=O)[C@@H](NC(=O)[C@H](CC(C)C)NC(=O)[C@H](CCCCN)NC(=O)[C@H](CC(C)C)NC(=O)[C@@H](NC(=O)[C@H](CCCCN)NC(=O)CNC(=O)[C@H](Cc1ccccc1)NC(=O)[C@@H](N)Cc1ccccc1)C(C)C)[C@@H](C)CC)C(=O)N[C@@H](Cc1ccccc1)C(N)=O", "note": "(H-FFGKVLKLIRKIF-NH2)", "values": [{"measurement": "MIC", "setting": "Pseudomonas aeruginosa", "result": "> 128", "unit": "µg/mL"}, {"measurement": "MIC", "setting": "Staphylococcus aureus [1]", "result": 64, "unit": "µg/mL"}, {"measurement": "MHC", "setting": "Erythrocyte", "result": 16, "unit": "µg/mL"}, {"measurement": "MIC", "setting": "Escherichia coli [2]", "result": "> 128", "unit": "µg/mL"}, {"measurement": "MIC", "setting": "Listeria monocytogenes", "result": 8, "unit": "µg/mL"}, {"measurement": "MIC", "setting": "Staphylococcus aureus [3]", "result": 64, "unit": "µg/mL"}]}
{"compound": "CC[C@H](C)[C@H](NC(=O)[C@@H]1CCCCNC/C=C/CNCCCC[C@H](NC(=O)[C@H](CC(C)C)NC(=O)[C@@H](NC(=O)[C@H](CCCCN)NC(=O)CNC(=O)[C@H](Cc2ccccc2)NC(=O)[C@@H](N)Cc2ccccc2)C(C)C)C(=O)N[C@@H](CC(C)C)C(=O)N[C@@H]([C@@H](C)CC)C(=O)N[C@@H](CCCNC(=N)N)C(=O)N1)C(=O)N[C@@H](Cc1ccccc1)C(N)=O", "note": "(H-FFGKVL[X1]LIR[X1]IF-NH2; staple (E) 7-11)", "values": [{"measurement": "MIC", "setting": "Pseudomonas aeruginosa", "result": "> 128", "unit": "µg/mL"}, {"measurement": "MIC", "setting": "Staphylococcus aureus [1]", "result": 32, "unit": "µg/mL"}, {"measurement": "MHC", "setting": "Erythrocyte", "result": 16, "unit": "µg/mL"}, {"measurement": "MIC", "setting": "Escherichia coli [4]", "result": 128, "unit": "µg/mL"}, {"measurement": "Activity", "setting": "HEK-293T", "result": "Toxic"}, {"measurement": "MIC", "setting": "Escherichia coli [2]", "result": 128, "unit": "µg/mL"}, {"measurement": "MIC", "setting": "Listeria monocytogenes", "result": 8, "unit": "µg/mL"}, {"measurement": "MIC", "setting": "Staphylococcus aureus [3]", "result": 16, "unit": "µg/mL"}]}
{"compound": "CC[C@H](C)[C@H](NC(=O)[C@H](CCCCN)NC(=O)[C@@H]1CCCN1C(=O)[C@@H](NC(=O)[C@H](CC(C)C)NC(=O)[C@H](CCCCN)NC(=O)[C@H](CC(C)C)NC(=O)[C@@H](NC(=O)[C@H](CO)NC(=O)CNC(=O)[C@H](Cc1ccccc1)NC(=O)[C@@H](N)Cc1ccccc1)C(C)C)[C@@H](C)CC)C(=O)N[C@@H](CC(C)C)C(N)=O", "note": "(H-FFGSVLKLIPKIL-NH2)", "values": [{"measurement": "MIC", "setting": "Pseudomonas aeruginosa", "result": "> 128", "unit": "µg/mL"}, {"measurement": "MIC", "setting": "Staphylococcus aureus [1]", "result": 2, "unit": "µg/mL"}, {"measurement": "MHC", "setting": "Erythrocyte", "result": 64, "unit": "µg/mL"}, {"measurement": "MIC", "setting": "Escherichia coli [4]", "result": 32, "unit": "µg/mL"}, {"measurement": "MIC", "setting": "Escherichia coli [2]", "result": 64, "unit": "µg/mL"}, {"measurement": "MIC", "setting": "Listeria monocytogenes", "result": 2, "unit": "µg/mL"}, {"measurement": "MIC", "setting": "Staphylococcus aureus [3]", "result": 2, "unit": "µg/mL"}]}
{"compound": "CC[C@H](C)[C@H](NC(=O)[C@@H]1CCCCNC/C=C/CNCCCC[C@H](NC(=O)[C@H](CC(C)C)NC(=O)[C@@H](NC(=O)[C@H](CO)NC(=O)CNC(=O)[C@H](Cc2ccccc2)NC(=O)[C@@H](N)Cc2ccccc2)C(C)C)C(=O)N[C@@H](CC(C)C)C(=O)N[C@@H]([C@@H](C)CC)C(=O)N2CCC[C@H]2C(=O)N1)C(=O)N[C@@H](CC(C)C)C(N)=O", "note": "(H-FFGSVL[X1]LIP[X1]IL-NH2; staple (E) 7-11)", "values": [{"measurement": "MIC", "setting": "Pseudomonas aeruginosa", "result": "> 128", "unit": "µg/mL"}, {"measurement": "MIC", "setting": "Staphylococcus aureus [1]", "result": 4, "unit": "µg/mL"}, {"measurement": "MHC", "setting": "Erythrocyte", "result": 32, "unit": "µg/mL"}, {"measurement": "MIC", "setting": "Escherichia coli [4]", "result": 128, "unit": "µg/mL"}, {"measurement": "Activity", "setting": "HEK-293T", "result": "Toxic"}, {"measurement": "MIC", "setting": "Escherichia coli [2]", "result": 64, "unit": "µg/mL"}, {"measurement": "MIC", "setting": "Listeria monocytogenes", "result": 4, "unit": "µg/mL"}, {"measurement": "MIC", "setting": "Staphylococcus aureus [3]", "result": 4, "unit": "µg/mL"}]}
{"compound": "CC(C)C[C@@H]1NC(=O)[C@H](C)NC(=O)[C@@H](NC(=O)[C@H](C)NC(=O)[C@H](C)NC(=O)CNC(=O)[C@H](CCCCN)NC(=O)[C@H](CC(C)C)NC(=O)[C@H](CC(C)C)NC(=O)[C@H](CC(=O)O)NC(=O)[C@H](CCCCN)NC(=O)[C@H](Cc2ccccc2)NC(=O)CN)CCCCNC/C=C/CNCCCC[C@@H](C(=O)N[C@H](C(=O)N[C@H](C(=O)N[C@@H](CC(C)C)C(=O)N[C@@H](Cc2ccccc2)C(N)=O)C(C)C)[C@@H](C)O)NC(=O)[C@H](C(C)C)NC1=O", "note": "(H-GFKDLLKGAA[X1]ALV[X1]TVLF-NH2; staple (E) 11-15)", "values": [{"measurement": "MIC", "setting": "Pseudomonas aeruginosa", "result": 128, "unit": "µg/mL"}, {"measurement": "MIC", "setting": "Staphylococcus aureus [1]", "result": 8, "unit": "µg/mL"}, {"measurement": "MHC", "setting": "Erythrocyte", "result": 32, "unit": "µg/mL"}, {"measurement": "MIC", "setting": "Escherichia coli [4]", "result": 16, "unit": "µg/mL"}, {"measurement": "Activity", "setting": "HEK-293T", "result": "Toxic"}, {"measurement": "MIC", "setting": "Escherichia coli [2]", "result": 8, "unit": "µg/mL"}, {"measurement": "MIC", "setting": "Listeria monocytogenes", "result": 4, "unit": "µg/mL"}, {"measurement": "MIC", "setting": "Staphylococcus aureus [3]", "result": 2, "unit": "µg/mL"}]}
{"compound": "CC(C)C[C@H](NC(=O)[C@H](C)NC(=O)[C@@H]1CCCCNC/C=C/CNCCCC[C@H](NC(=O)[C@H](CC(C)C)NC(=O)[C@H](CC(C)C)NC(=O)[C@H](CC(=O)O)NC(=O)[C@H](CCCCN)NC(=O)[C@H](Cc2ccccc2)NC(=O)CN)C(=O)NCC(=O)N[C@@H](C)C(=O)N[C@@H](C)C(=O)N1)C(=O)N[C@H](C(=O)N[C@@H](CCCCN)C(=O)N[C@H](C(=O)N[C@H](C(=O)N[C@@H](CC(C)C)C(=O)N[C@@H](Cc1ccccc1)C(N)=O)C(C)C)[C@@H](C)O)C(C)C", "note": "(H-GFKDLL[X1]GAA[X1]ALVKTVLF-NH2; staple (E) 7-11)", "values": [{"measurement": "MIC", "setting": "Pseudomonas aeruginosa", "result": 32, "unit": "µg/mL"}, {"measurement": "MIC", "setting": "Staphylococcus aureus [1]", "result": 8, "unit": "µg/mL"}, {"measurement": "MHC", "setting": "Erythrocyte", "result": 32, "unit": "µg/mL"}, {"measurement": "MIC", "setting": "Escherichia coli [4]", "result": 32, "unit": "µg/mL"}, {"measurement": "MIC", "setting": "Escherichia coli [2]", "result": 16, "unit": "µg/mL"}, {"measurement": "MIC", "setting": "Listeria monocytogenes", "result": 8, "unit": "µg/mL"}, {"measurement": "MIC", "setting": "Staphylococcus aureus [3]", "result": 2, "unit": "µg/mL"}]}
